Assay results reported in paper PMC4457528, “Identification of Novel Small Molecule Inhibitors of Oncogenic RET Kinase” (PLoS ONE, 2015).

How the values were obtained:
RAT RET/M918T cells = test: Growth curves, RAT1 cells transformed by RET/M918T; assay type: cell-based; details: low serum, last day values, 95% CI in brackets, read-out: Growth inhibition IC50 dose: RAT RET/M918T
Procedure: (§1) To compare cell growth, we performed unpaired Student’s t test using the Instat software program (Graphpad Software Inc). P values were two-sided, and differences were considered statistically significant at P <.02. IC50 doses were calculated through a curve fitting analysis from last day values using the PRISM software program (Graphpad Software Inc).

MZ-CRC-1 cells = test: Growth curves, MZ-CRC-1 medullary thyroid carcinoma cells (RET/M918T); assay type: cell-based; details: Homo sapiens, 10% serum, 95% CI in brackets, read-out: Growth inhibition IC50 dose MZ-CRC-1
Procedure: (§2) TT human cell line was obtained in 2002 from ATCC and authenticated by RET genotyping; it was derived from a MTC and harbors a cysteine 634 to tryptophan (C634W) RET mutation. TT cells were grown in RPMI 1640 supplemented with 20% fetal calf serum (GIBCO). MZ-CRC-1 human cells were kindly provided in 2009 by Robert F. Gagel (MD Anderson, Houston, TX) and authenticated by RET genotyping. […] Nthy-ori 3–1, a human thyroid follicular epithelial cell line immortalized by the SV40 large T gene, was obtained from European Collection of Cell Cultures (ECACC) (Wiltshire, UK) in 2010.
as §1

VEGFRII = target: T1, VEGFRII (Homo sapiens, UniProt P35968); test: Western blot of VEGFRII phosphorylation in TT cells; assay type: cell-based; details: 2 hr, Western blotting
T1 construct: endogenous in cells; host or cells: TT human medullary thyroid carcinoma cells
T1 sequence (P35968 20-1356): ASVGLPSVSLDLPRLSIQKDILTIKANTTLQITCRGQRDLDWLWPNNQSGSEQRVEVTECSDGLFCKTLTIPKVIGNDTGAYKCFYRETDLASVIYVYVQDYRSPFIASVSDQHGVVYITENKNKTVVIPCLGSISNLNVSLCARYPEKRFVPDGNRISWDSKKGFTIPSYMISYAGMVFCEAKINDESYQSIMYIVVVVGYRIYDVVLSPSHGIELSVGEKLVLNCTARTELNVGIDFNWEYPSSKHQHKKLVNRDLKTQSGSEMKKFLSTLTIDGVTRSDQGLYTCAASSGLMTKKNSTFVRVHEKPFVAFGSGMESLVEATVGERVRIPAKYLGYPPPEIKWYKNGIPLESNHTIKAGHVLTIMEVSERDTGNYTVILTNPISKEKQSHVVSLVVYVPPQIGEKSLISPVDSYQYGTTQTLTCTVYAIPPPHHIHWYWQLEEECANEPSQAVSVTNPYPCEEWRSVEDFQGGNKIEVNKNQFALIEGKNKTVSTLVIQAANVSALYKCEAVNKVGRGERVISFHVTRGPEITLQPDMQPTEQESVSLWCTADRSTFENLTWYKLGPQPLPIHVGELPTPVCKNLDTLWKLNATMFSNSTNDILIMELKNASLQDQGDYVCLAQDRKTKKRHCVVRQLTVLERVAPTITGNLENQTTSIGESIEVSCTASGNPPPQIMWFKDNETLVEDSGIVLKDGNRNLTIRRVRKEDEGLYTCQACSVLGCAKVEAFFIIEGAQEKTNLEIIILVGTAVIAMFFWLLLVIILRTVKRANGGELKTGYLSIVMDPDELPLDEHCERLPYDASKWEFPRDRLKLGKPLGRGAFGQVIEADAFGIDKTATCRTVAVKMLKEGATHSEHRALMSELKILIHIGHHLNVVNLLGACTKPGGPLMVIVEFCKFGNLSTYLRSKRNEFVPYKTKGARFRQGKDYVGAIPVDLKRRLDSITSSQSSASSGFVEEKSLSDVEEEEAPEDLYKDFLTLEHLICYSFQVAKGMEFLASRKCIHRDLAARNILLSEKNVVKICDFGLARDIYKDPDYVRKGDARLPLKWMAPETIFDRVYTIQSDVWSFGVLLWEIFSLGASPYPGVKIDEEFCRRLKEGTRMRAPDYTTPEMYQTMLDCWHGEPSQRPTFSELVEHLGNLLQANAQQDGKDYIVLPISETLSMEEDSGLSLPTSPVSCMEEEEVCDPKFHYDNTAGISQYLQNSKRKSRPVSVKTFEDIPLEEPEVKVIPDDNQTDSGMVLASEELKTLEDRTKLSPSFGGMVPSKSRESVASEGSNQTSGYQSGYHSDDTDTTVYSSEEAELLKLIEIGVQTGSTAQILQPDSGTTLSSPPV
Procedure: (§3) Protein lysates were prepared according to standard procedures. Briefly, cells were lysed in a buffer containing 50 mM N-2-hydroxyethylpiperazine-N'-2-ethanesulfonic acid (HEPES; pH 7.5), 1% (vol/vol) Triton X-100, 150 mM NaCl, 5 mM EGTA, 50 mM NaF, 20 mM sodium pyrophosphate, 1 mM sodium vanadate, 2 mM phenylmethylsulphonyl fluoride (PMSF) and 1 μg/ml aprotinin. Lysates were clarified by centrifugation at 10,000 Xg for 15 min. […] Immune complexes were detected with the enhanced chemiluminescence kit (Amersham Pharmacia Biotech, Little Chalfort, UK). Signal intensity was analyzed at the Phosphorimager (Typhoon 8600, Amersham Pharmacia Biotech) interfaced with the ImageQuant software. Anti-phospho-SHC (#07206), that recognizes SHC proteins when phosphorylated on Y317 was from Merck Millipore (Darmstadt, Germany). Anti-MAPK (#4695) and anti-phospho-MAPK (#4370), specific for p44/42MAPK (ERK1/2) phosphorylated on Thr202/Tyr204, anti-VEGFRII (#2479) and anti-phospho-VEGFRII (#2478), that recognizes VEGF Receptor 2 when phosphorylated on Y1175, were from Cell Signaling (Beverly, MA).
VEGFRII inhibition is believed to contribute, based on its anti-angiogenic effect, to clinical activity of approved RET inhibitors such as vandetanib and cabozantinib.
The blots were normalized using anti-VEGFRII (αVEGFRII) antibody. (JPG) Click here for additional data file.

[1] = test system: SHC and MAPK phosphorylation in Nthy-ori-3-1 cells; test: Western blot of SHC and MAPK phosphorylation in Nthy-ori-3-1 cells; assay type: cell-based, human; details: 10, 100 and 1,000 nM, 2 hr
Procedure: as §3
(§4) Anti-SHC (#H-108) was from Santa Cruz Biotechnology (Santa Cruz, CA). Anti-RET is a polyclonal antibody raised against the tyrosine kinase protein fragment of human RET [28]. Anti-phospho905 is a phospho-specific polyclonal antibody recognizing RET proteins phosphorylated at Y905 and anti-phospho1062 is a phospho-specific polyclonal antibody recognizing RET proteins phosphorylated at Y1062 [13]. Secondary antibodies coupled to horseradish peroxidase were from Santa Cruz Biotechnology.
We selected TT and MZ-CRC-1 cells, that derive from human MTC harbouring the RET/C634W or RET/M918T mutation, respectively, and TPC1 cells, that derive from human PTC bearing the RET/PTC1 (CCDC6-RET) rearrangement. […] Concentrations as low at 10 nM of all three drugs inhibited RET autophosphorylation as well as SHC and MAPK activation by 20–40% of control (Fig 4A–4C). […]

[2] = test system: SHC and MAPK phosphorylation in parental RAT1 cells; test: Western blot of SHC and MAPK phosphorylation in parental RAT1 cells; assay type: cell-based, rat; details: 2 hr
Procedure: as §3, §4
EC: extracellular domain; IC: intracellular domain; TM: transmembrane domain.

TT cells = test: Growth curves, TT medullary thyroid carcinoma cells (RET/C634W); assay type: cell-based; details: Homo sapiens, 20% serum, 95% CI in brackets, read-out: Growth inhibition IC50 dose TT
Procedure: as §2, §1

RET/M918T = RET/M918T (Homo sapiens, UniProt P07949, M918T); test: cell-based; details: NIH3T3, read-out: inhibition of RET/M918T protein
RET/M918T, sequence (P07949 29-1072 isoform P07949-2 M918T limits assumed): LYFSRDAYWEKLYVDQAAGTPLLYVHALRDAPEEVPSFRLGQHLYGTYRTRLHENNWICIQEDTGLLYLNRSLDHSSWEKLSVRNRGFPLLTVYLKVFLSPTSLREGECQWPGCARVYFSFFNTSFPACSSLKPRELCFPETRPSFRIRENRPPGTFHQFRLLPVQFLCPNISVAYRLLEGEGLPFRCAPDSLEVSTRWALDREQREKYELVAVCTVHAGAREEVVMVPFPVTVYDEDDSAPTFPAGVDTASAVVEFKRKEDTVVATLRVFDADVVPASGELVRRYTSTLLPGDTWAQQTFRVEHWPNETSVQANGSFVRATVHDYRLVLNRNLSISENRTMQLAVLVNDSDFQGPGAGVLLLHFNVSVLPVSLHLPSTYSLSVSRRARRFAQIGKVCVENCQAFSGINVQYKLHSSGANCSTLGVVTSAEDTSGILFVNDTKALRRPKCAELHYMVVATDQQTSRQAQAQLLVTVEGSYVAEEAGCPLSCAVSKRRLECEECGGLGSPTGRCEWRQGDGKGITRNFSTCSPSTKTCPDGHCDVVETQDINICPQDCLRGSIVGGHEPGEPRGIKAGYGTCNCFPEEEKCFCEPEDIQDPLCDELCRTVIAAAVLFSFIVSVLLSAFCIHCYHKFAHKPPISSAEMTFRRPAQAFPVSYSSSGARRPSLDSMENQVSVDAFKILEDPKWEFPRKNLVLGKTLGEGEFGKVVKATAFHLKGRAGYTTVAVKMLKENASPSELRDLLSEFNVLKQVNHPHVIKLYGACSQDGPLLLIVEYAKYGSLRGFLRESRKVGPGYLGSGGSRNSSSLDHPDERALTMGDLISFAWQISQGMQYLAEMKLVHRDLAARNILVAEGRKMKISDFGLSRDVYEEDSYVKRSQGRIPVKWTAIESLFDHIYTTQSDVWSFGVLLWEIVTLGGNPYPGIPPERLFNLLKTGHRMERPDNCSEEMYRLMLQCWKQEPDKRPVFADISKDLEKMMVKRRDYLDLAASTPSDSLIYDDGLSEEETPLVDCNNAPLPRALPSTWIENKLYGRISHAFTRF

RAT RET/C634R cells = assay type: cell-based; details: low serum, last day values, 95% CI in brackets, read-out: Growth inhibition IC50 dose: RAT RET/C634R
Procedure: as §1

wt RET = target: T2, wt RET (Homo sapiens, UniProt P07949); test: Invitrogen SelectScreen in vitro kinase assay, wt RET; assay type: biochemical; details: read-out: in vitro IC50 dose: RET
T2 construct: purchased Invitrogen (SelectScreen service)
T2 sequence (P07949 29-1114): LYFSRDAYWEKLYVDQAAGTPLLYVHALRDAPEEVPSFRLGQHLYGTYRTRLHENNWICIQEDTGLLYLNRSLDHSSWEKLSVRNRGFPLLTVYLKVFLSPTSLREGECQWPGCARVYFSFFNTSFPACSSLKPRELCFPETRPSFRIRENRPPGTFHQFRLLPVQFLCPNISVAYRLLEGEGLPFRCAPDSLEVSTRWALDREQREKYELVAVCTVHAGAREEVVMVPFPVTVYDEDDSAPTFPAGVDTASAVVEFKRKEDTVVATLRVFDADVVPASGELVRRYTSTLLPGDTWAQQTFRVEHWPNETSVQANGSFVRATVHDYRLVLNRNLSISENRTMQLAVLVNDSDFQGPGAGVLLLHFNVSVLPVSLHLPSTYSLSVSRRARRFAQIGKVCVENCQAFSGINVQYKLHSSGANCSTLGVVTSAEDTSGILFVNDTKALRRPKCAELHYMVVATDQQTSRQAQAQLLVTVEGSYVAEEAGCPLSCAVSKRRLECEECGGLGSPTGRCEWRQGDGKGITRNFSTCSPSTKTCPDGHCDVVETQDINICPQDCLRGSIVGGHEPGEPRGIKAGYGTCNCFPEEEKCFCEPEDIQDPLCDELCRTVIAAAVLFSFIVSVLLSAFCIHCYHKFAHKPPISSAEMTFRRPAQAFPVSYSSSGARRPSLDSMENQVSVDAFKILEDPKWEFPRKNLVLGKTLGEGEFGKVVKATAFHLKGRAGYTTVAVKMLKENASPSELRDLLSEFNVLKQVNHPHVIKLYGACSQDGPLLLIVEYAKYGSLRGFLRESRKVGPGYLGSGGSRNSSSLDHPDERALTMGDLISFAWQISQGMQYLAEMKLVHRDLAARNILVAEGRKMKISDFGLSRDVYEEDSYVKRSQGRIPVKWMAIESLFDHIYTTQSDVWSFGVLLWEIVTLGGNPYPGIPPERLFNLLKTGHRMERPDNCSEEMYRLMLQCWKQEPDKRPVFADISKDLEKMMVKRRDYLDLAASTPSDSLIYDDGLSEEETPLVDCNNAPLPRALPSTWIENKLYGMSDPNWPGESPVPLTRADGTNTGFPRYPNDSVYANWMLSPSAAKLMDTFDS
From the text: Fig 2 ALW-II-41-27, HG-6-63-01 and XMD15-44 chemical structure. A) Chemical structure of the studied compounds: red colour indicates the “tail”, black colour indicates “linker”, and pink colour indicates the “head” part in the binding. B) Modelling of ALW-II-41-27 (left), XMD15-44 (middle) and HG-6-63-01(right) binding to the DFG-out conformation of RET.
Though more rarely than C634 and M918 mutations, other mutations targeting RET residues in the tyrosine kinase domain can cause familial or sporadic MTC [1, 2]. […] Of note, RET A883 residue is located in the VI Hanks domain adjacent to RET activation loop and it corresponds to G372 residue in ABL kinase whose mutation has been isolated in imatinib-resistant patients.

KinomeScan kinase panel [3] = target: T3, KinomeScan kinase panel (Homo sapiens, UniProt O15197); test: KinomeScan kinase panel, single concentration 10 µM; assay type: binding; details: EPHB6, 10 µM; read-out: score (%)
T3 construct: purchased DiscoveRx (KinomeScan)

KinomeScan kinase panel [4] = target: T4, KinomeScan kinase panel (Homo sapiens, UniProt Q15835); test: as above; assay type: binding; details: GRK1, 10 µM; read-out: score (%)
T4 construct: purchased DiscoveRx (KinomeScan)
T4 sequence (Q15835 whole entry): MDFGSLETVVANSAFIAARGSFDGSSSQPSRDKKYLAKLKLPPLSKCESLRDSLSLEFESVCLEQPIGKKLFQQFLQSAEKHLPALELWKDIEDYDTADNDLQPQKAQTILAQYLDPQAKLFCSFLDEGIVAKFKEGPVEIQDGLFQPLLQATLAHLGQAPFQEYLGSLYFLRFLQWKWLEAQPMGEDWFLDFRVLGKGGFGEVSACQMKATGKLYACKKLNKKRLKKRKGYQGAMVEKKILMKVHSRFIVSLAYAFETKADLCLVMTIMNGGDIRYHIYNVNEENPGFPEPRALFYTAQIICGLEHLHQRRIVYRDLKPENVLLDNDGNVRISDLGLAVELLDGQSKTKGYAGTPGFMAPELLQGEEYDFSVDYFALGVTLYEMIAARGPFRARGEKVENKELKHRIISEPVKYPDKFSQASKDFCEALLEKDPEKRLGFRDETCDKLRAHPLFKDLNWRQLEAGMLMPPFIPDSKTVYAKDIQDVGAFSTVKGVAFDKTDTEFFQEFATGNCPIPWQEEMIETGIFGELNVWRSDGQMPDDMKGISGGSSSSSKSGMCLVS

KinomeScan kinase panel [5] = target: T5, KinomeScan kinase panel (Homo sapiens, UniProt O76039); test: as above; assay type: binding; details: CDKL5, 10 µM; read-out: score (%)
T5 construct: purchased DiscoveRx (KinomeScan)

KinomeScan kinase panel [6] = target: T6, KinomeScan kinase panel (Homo sapiens, UniProt Q9UHD2); test: as above; assay type: binding; details: kinase TBK1; 10 µM; read-out: score (%)
T6 construct: purchased DiscoveRx (KinomeScan)
T6 sequence (Q9UHD2 whole entry): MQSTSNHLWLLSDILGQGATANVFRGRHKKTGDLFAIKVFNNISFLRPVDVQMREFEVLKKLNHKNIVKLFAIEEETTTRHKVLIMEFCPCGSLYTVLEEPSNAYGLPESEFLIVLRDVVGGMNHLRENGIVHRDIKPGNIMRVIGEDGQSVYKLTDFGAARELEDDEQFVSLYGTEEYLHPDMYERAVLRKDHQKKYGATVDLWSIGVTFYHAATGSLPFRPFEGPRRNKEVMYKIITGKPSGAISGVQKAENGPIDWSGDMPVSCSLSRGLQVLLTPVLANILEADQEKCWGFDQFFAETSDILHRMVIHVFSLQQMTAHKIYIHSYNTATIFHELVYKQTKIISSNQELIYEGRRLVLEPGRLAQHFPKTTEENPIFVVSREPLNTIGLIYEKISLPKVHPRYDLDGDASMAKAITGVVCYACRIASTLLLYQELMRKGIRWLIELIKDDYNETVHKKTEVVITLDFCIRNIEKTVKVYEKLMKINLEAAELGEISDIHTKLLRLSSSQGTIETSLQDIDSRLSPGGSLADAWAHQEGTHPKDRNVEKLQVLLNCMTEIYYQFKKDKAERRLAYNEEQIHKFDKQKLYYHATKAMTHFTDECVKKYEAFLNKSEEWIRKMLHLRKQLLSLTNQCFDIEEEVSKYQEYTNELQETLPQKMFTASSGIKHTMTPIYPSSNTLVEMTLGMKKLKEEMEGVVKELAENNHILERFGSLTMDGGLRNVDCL

Row | SMILES | IC50 (RAT RET/M918T cells) | IC50 (MZ-CRC-1 cells) | inhibition of VEGFRII phosphorylation in living TT cells (VEGFRII) | effect on SHC and MAPK phosphorylation in Nthy-ori-3-1 cells [1] | effect on SHC and MAPK phosphorylation in parental RAT1 cells [2] | IC50 (TT cells) | inhibition at 0.01 µM (RET/M918T) | IC50 (RAT RET/C634R cells) | IC50 (wt RET) | remaining binding at 10 µM (KinomeScan kinase panel [3]) | remaining binding at 10 µM (KinomeScan kinase panel [4]) | remaining binding at 10 µM (KinomeScan kinase panel [5]) | remaining binding at 10 µM (KinomeScan kinase panel [6])
1 | CCN1CCN(Cc2ccc(NC(=O)c3ccc(C)c(NC(=O)c4cncc(-c5cccs5)c4)c3)cc2C(F)(F)F)CC1 [ALW-II-41-27] | 56 nM | 2 nM | able to inhibit | did not exert any detectable effects | did not affect | 5.7 nM | > 30% | 44 nM | 24.7 nM | 1.2% | > 30% | > 30% | > 30%
2 | CCN1CCN(Cc2ccc(NC(=O)c3ccc(C)c(/C=C/c4cnc5[nH]ccc5c4Cl)c3)cc2C(F)(F)F)CC1 [HG-6-63-01, (E)-3-(2-(4-chloro-1H-pyrrolo[2,3-b]pyridin-5-yl)vinyl)-N-(4-((4-ethylpiperazin-1-yl)methyl)-3-(trifluoromethyl)phenyl)-4-methylbenzamide] | 16 nM | 1 nM | able to inhibit | did not exert any detectable effects | did not affect | 2.3 nM | > 30% | 21 nM | 35.3 nM | – | – | – | –
3 | CCN1CCN(Cc2ccc(NC(=O)c3ccc(C)c(C#Cc4cccnc4)c3)cc2C(F)(F)F)CC1 [XMD15-44] | 8.3 nM | 4.2 nM | able to inhibit | did not exert any detectable effects | did not affect | 1.5 nM | > 30% | 11.5 nM | 14.2 nM | 8.8% | > 30% | 12% | 100%
